Data: the supplement of paper PMC8967900

What was measured:
Assay in all cases: selective drug sensitivity score (sDSS, relative to normal bone marrow) (sDSS (score)); higher = more potent and effective on the cell line relative to normal bone marrow cells
Settings in all cases: 72 h
KOPN-8 = system: KOPN-8
COG-LL-317 = system: COG-LL-317
COG-LL-402h = system: COG-LL-402h
COG-LL-394h = system: COG-LL-394h
JURKAT = system: JURKAT
MOLT-16 = system: MOLT-16
MOLT-14 = system: MOLT-14
P12-ICHIKAWA = system: P12-ICHIKAWA
MN-60 = system: MN-60
CCRF-HSB2 = system: CCRF-HSB2
380 = system: 380
MHH-CALL-2 = system: MHH-CALL-2
MOLT-4 = system: MOLT-4
COG-LL-319h = system: COG-LL-319h
ALL-PO = system: ALL-PO
PEER = system: PEER
TANOUE = system: TANOUE
MHH-CALL-4 = system: MHH-CALL-4
TMD5 = system: TMD5
697 = system: 697
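Also: ALL cell lines in 384-well plates, five doses spanning 10,000-fold, each plate scaled between vehicle and 100 µmol/L benzalkonium chloride controls, sDSS an adapted area-under-curve metric.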

| SMILES | selective drug sensitivity score (KOPN-8) | selective drug sensitivity score (COG-LL-317) | selective drug sensitivity score (COG-LL-402h) | selective drug sensitivity score (COG-LL-394h) | selective drug sensitivity score (JURKAT) | selective drug sensitivity score (MOLT-16) | selective drug sensitivity score (MOLT-14) | selective drug sensitivity score (P12-ICHIKAWA) | selective drug sensitivity score (MN-60) | selective drug sensitivity score (CCRF-HSB2) | selective drug sensitivity score 380 | selective drug sensitivity score (MHH-CALL-2) | selective drug sensitivity score (MOLT-4) | selective drug sensitivity score (COG-LL-319h) | selective drug sensitivity score (ALL-PO) | selective drug sensitivity score (PEER) | selective drug sensitivity score (TANOUE) | selective drug sensitivity score (MHH-CALL-4) | selective drug sensitivity score (TMD5) | selective drug sensitivity score 697 |
| --- | --- | --- | --- | --- | --- | --- | --- | --- | --- | --- | --- | --- | --- | --- | --- | --- | --- | --- | --- | --- |
| COc1cc2c(NC3CCN(C(C)C)CC3)nc(C3CCCCC3)nc2cc1OCCCN1CCCC1 [UNC0638] (top concentration 10000 nM) | -4.44 | 0.06 | 1.16 | 0.16 | -2.64 | -1.04 | -0.94 | -2.84 | -2.64 | 0.16 | 0.06 | -2.84 | -3.74 | 8.26 | -1.74 | 1.26 | -5.14 | -3.94 | -4.84 | -0.84 |
| CCc1c(C(=O)C(N)=O)c2c(OCC(=O)O)cccc2n1Cc1ccccc1 [Varespladib] (top concentration 10000 nM) | -0.84 | -0.74 | 6.36 | -0.84 | -0.74 | 1.76 | -0.84 | -0.84 | -0.84 | 0.36 | -0.84 | -0.84 | -0.84 | -0.84 | -0.84 | -0.84 | -0.84 | 3.56 | -0.84 | -0.84 |
| O=C1NC(=O)[C@@H](c2cn3c4c(cccc24)CCC3)[C@@H]1c1c[nH]c2ccccc12 [Tivantinib] (top concentration 1000 nM) | 3.08 | 3.68 | 2.38 | -0.42 | 3.98 | 3.48 | 3.18 | 3.68 | 3.78 | 3.58 | 6.18 | 8.48 | 3.28 | 3.58 | 2.08 | 4.38 | -1.32 | 4.88 | 5.38 | 5.18 |
| CN1CC[C@@H](NC(=O)Nc2ccc(C#N)cc2)C[C@@H]1c1nc2ccccc2[nH]1 [Glasdegib] (top concentration 1000 nM) | 0 | 1.5 | 0 | 0 | 0 | 0 | 0 | 0 | 4.7 | 0 | 0 | 0 | 0 | 4.1 | 0 | 0 | 2.9 | 0 | 0.3 | 0 |
| Nc1nc(Nc2ccc3c(c2)CC[C@@H](N2CCCC2)CC3)nn1-c1cc2c(nn1)-c1ccccc1CCC2 [BGB324] (top concentration 10000 nM) | 0.02 | -0.38 | 2.32 | 2.82 | 1.02 | 2.92 | 1.62 | 0.02 | -2.48 | 2.32 | -0.88 | -1.58 | 3.22 | 0.22 | 6.02 | 4.42 | -3.88 | -2.88 | -2.98 | 3.52 |
| C=CC[C@@H]1/C=C(\C)C[C@H](C)C[C@H](OC)[C@H]2O[C@@](O)(C(=O)C(=O)N3CCCC[C@H]3C(=O)O[C@H](/C(C)=C/[C@@H]3CC[C@@H](O)[C@H](OC)C3)[C@H](C)[C@@H](O)CC1=O)[C@H](C)C[C@@H]2OC [Tacrolimus] (top concentration 10000 nM) | 4.68 | 0.68 | -0.72 | 3.08 | 1.78 | 12.1 | 1.38 | 1.58 | -0.32 | 3.38 | 1.88 | 24.6 | 1.38 | 12.7 | 2.08 | 1.38 | -0.72 | -0.12 | 13.5 | 2.88 |
| CCCCC(=O)OCC(=O)[C@]1(O)Cc2c(O)c3c(c(O)c2[C@@H](O[C@H]2C[C@H](NC(=O)C(F)(F)F)[C@H](O)[C@H](C)O2)C1)C(=O)c1c(OC)cccc1C3=O [Valrubicin] (top concentration 5000 nM) | 10.2 | 17 | 13.8 | 7.78 | 4.98 | 18.1 | 12.6 | 8.48 | -3.92 | 15.6 | 13 | 7.48 | 10.8 | 12.9 | -2.62 | -9.32 | -12.7 | 7.28 | 4.18 | 8.58 |
| C[C@]1(O)C[C@@H](c2nc(-c3ccc4ccc(-c5ccccc5)nc4c3)c3c(N)nccn32)C1 [Linsitinib] (top concentration 10000 nM) | -0.38 | -3.18 | -3.18 | -0.68 | -3.18 | -3.18 | -3.18 | -3.18 | -3.18 | -2.28 | 1.72 | 2.32 | -2.58 | -1.78 | 3.92 | -0.98 | -3.18 | 0.22 | 1.62 | -2.68 |
| CN(C)C(=O)c1ccc(S(=O)(=O)c2ccc(NC(=O)[C@@](C)(O)C(F)(F)F)c(Cl)c2)cc1 [AZD7545] (top concentration 10000 nM) | 3.1 | 0.7 | -0.2 | 4.1 | 7 | 5.3 | 1 | 2.7 | 3.3 | 1.3 | -0.2 | -0.2 | 1.6 | 0.8 | 2.6 | 6.2 | 3.4 | -0.2 | -0.2 | 4.3 |
| CNC(=O)[C@@H](NC(=O)[C@H](CC(C)C)[C@H](O)C(=O)NO)C(C)(C)C [Marimastat] (top concentration 10000 nM) | 7.22 | -1.28 | -0.38 | -0.88 | 2.42 | 2.82 | 2.92 | 1.22 | 1.02 | -0.78 | -1.28 | 9.42 | 0.62 | -1.28 | 5.22 | 1.42 | -1.28 | 0.92 | 3.72 | -0.68 |
